Reference: patent US9840494B2, “Quinazoline derivative” (Tianjin Hemay Oncology Pharmaceutical Co., Ltd., priority 2013, dated 2017)
Marks after values point to notes of the source that are not given here.

Experiments:
[1] = system: HCC827 human non-small cell lung cancer xenograft; assay: HCC827 human non-small cell lung cancer xenograft model; format: in vivo, nude mice; settings: for Tumor Weight (x ± S.D.) / Tumor Inhibitor Rate / Relative Tumor Volume (x ± S.D.) / T/C / Tumor Volume (x ± S.D.): HCC827 xenograft; for Tumor Inhibitor Rate: by tumor weight; for Relative Tumor Volume (x ± S.D.) / T/C / Tumor Volume (x ± S.D.): end of the assay
Procedure: Tumor cells were cultured in an incubator at 37° C. with 5% CO2 using MEM medium containing 10% inactivated fetal calf serum, 100 U/ml penicillin and 100 μg/ml streptomycin. The tumor cells in logarithmic growth phase were collected, adjusted to an appropriate density and injected subcutaneously into nude mice (0.2 ml per mouse). An xenograft model was established after a tumor was formed in the nude mice and passaged in vivo for more than three generations.
The above-mentioned tumor-bearing mice were sacrificed by cervical dislocation. The tumor was taken out and cut into small tumor pieces (about 2 mm×2 mm×2 mm) under sterile conditions. The small tumor pieces were inoculated subcutaneously into nude mice on the right shoulder blade with a trocar. […] The animals in each group were subjected to intragastric administration daily for 14 consecutive days. The day of grouping is assigned as day 0.
Tumor volume is calculated as: volume=0.5×long diameter×short diameter^2. The relative tumor volume (RTV) was calculated based on the measurements as: RTV=Vt/V0, wherein V0 is the tumor volume measured when the animals were grouped to be administrated (i.e., d0), and Vt is the tumor volume when each measurement was taken. Relative tumor proliferation rate T/C was calculated based on relative tumor volume, in which T is the mean value of the relative tumor volume of the treatment group, and C is the mean value of the relative tumor volume of the solvent control group. T/C was calculated as follows: T/C=TRTV/CRTV×100% (TRTV: RTV of the treatment group; CRTV: RTV of the solvent control group) Inhibition rate (%)=(mean tumor weight of the solvent control group−mean tumor weight of the treatment group)/mean tumor weight of the solvent control group x 100%. Percentage of body weight change=Wn/W0×100% (Wn: mean body weight of experimental animals in each group at day n, W0: mean body weight of experimental animals in each group at day 0).
One-Way ANOVA test was conducted in SPSS13.0, performing statistical analysis between groups.

[2] = Bioavailability assay, Experiment III (free base); format: in vivo; settings: Wistar rats
Procedure: Experiment III. Bioavailability Assay for N-[4-(3-chloro-4-fluorophenylamino)-7-(2-methoxyethoxy)quinazolin-6-yl]-2-[1-(2-methoxyethyl)piperidin-4-ylidene]acetamide
8 Wistar rats (male, weighing 160-190 g) were purchased from Laboratory Animal Center, Chinese PLA Academy of Military Medical Sciences. License No.: SCXK (Army) 2012-0004; Certificate No.: 0037074.
1) the compound was precisely weighed in a 10 ml glass tube;
2) The volume of DMSO was 2% of the total volume and DMSO was pipetted. The tip of the pipette was slowly rotated with being pressed against the inner wall of the centrifuge tube, and DMSO was pipetted in several times to dissolve the compound adsorbed on the wall of the centrifuge tube. After all the compound was transferred to the bottom portion of the centrifuge tube, the compound was dissolved by vortex and then placed in a water bath at 80° C.;
3) polyoxylethylene 35-castor oil of which the volume was 6% of the total volume was added and vortex;
4) sodium chloride solution for injection (0.9%) of which the volume was 92% of the total volume was added and vortexed to give a clear solution which will be used within 60 min
8 rats were fasted and ad libitum accessed to water for 12 h before administration. They were randomly divided into two groups, i.e. four rats per group, and were administered with the drug according to the administration scheme. Blood (about 0.5 ml) was drawn from the orbital venous plexus before dosing and at 5 min, 0.5 h, 1 h, 2 h, 3 h, 4 h, 5 h, 6 h and 8 h after dosing, and put into a heparinized centrifuge tube and centrifuged at 8000 r/min for 10 min 100 μl of the plasma was recovered, and 200 μl of 0.2% acetic acid in methanol (containing an internal standard (irbesartan, 20 ng/ml)) was added thereto to precipitate protein, vortexed for 2 min and centrifuged at 13000 r/min for 10 min The supernatant was obtained, and 20 μl of the supernatant was injected for detection.
Chromatographic column: phenomenex Synergi Polar-RP (150×4.6 mm, 2.5 μm)
Flow rate: 1 ml/min; column temperature: 40° C.
Mobile phase: A phase: 5 mM aqueous solution of ammonium formate; B phase: methanol, and the gradient was as follows: […]
API3000 LC-MS/MS; ESI source; MRM positive ion scan mode; and the parameters were as follows:
The main pharmacokinetic parameters and oral bioavailability results were calculated by using DAS2.0 (statistical moment).
Method for the calculation of bioavailability: F=(AUCig×Div)/(AUCiv×Dig)×100%
wherein D is dose; AUC: the area under the plasma drug concentration-time curve; ig represents intragastric administration; and iv represents intravenous injection administration.

[3] = HCC827 xenograft nude mice, 20, 40 and 80 mg/kg intragastric daily for 14 days
[4] = 20 mg/kg intragastric daily for 14 days
[5] = 40 mg/kg intragastric daily for 14 days
[6] = 80 mg/kg intragastric daily for 14 days
[7] = 20 mg/kg intragastric gavage, preformulation
[8] = 20 mg/kg tail intravenous injection, preformulation
[9] = male, rat, plasma, po, 20 mg/kg intragastric gavage, preformulation
[10] = male, rat, plasma, 20 mg/kg tail intravenous injection, preformulation

With `COCCOc1cc2ncnc(Nc3ccc(F)c(Cl)c3)c2cc1NC(=O)C=C1CCN(CCOC)CC1.CS(=O)(=O)O` [Compound 3, N-[4-(3-chloro-4-fluorophenylamino)-7-(2-methoxyethoxy)quinazolin-6-yl]-2-[1-(2-methoxyethyl)piperidin-4-ylidene]acetamide dimethylsulfonate] the “Body weights of the experimental animals” value [1, 3] was “not significantly reduced”, the “abnormality in the experimental animals” value [1, 3] was “no significant abnormality was observed” and the “Tumor Weight (x ± S.D.)” value [1, 4] was 0.045 ± 0.074 g. For the same compound, the “Tumor Inhibitor Rate” value [1, 4] was 91.7%, the “Relative Tumor Volume (x ± S.D.)” value [1, 4] was 0.36 ± 0.45 and the T/C [1, 4] was 5.0%. For the same compound, the “Tumor Volume (x ± S.D.)” value [1, 4] was 57.3 ± 77.6*** mm^3, the “Tumor Weight (x ± S.D.)” value [1, 5] was 0.026 ± 0.026 g and the “Tumor Inhibitor Rate” value [1, 5] was 95.2%. The “Relative Tumor Volume (x ± S.D.)” value [1, 5] was 0.13 ± 0.10, the T/C [1, 5] was 1.8% and the “Tumor Volume (x ± S.D.)” value [1, 5] was 18.4 ± 11.6*** mm^3. For the same compound, the “Tumor Weight (x ± S.D.)” value [1, 6] was 0.014 ± 0.013 g, the “Tumor Inhibitor Rate” value [1, 6] was 97.4% and the “Relative Tumor Volume (x ± S.D.)” value [1, 6] was 0.13 ± 0.04. The T/C [1, 6] was 1.8% and the “Tumor Volume (x ± S.D.)” value [1, 6] was 20.9 ± 8.6*** mm^3.

Compound `COCCOc1cc2ncnc(Nc3ccc(F)c(Cl)c3)c2cc1NC(=O)C=C1CCN(CCOC)CC1` [Compound 1, N-[4-(3-chloro-4-fluorophenylamino)-7-(2-methoxyethoxy)quinazolin-6-yl]-2-[1-(2-methoxyethyl)piperidin-4-ylidene]acetamide] has a CLz/F [2, 7] of 103 mL/min/kg, a t½z [2, 7] of 4.59 h and a CLz [2, 8] of 24.7 mL/min/kg. For the same compound, the t½z [2, 8] was 4.39 h, the bioavailability ([2]; male, rat, plasma, oral, 20 mg/kg ig vs 20 mg/kg iv) was 23.9% and the AUC(0-inf) [2, 9] was 3320 ng·h/mL. The AUC(0-t) [2, 9] was 2190 ng·h/mL, the Cmax [2, 9] was 416 ng/mL and the Tmax [2, 9] was 2.5 h. For the same compound, the Vd/F ([2]; male, rat, plasma, po, 20 mg/kg intragastric gavage, preformulation, read-out: Vz/F) was 39.2 L/kg, the AUC(0-inf) [2, 10] was 13900 ng·h/mL and the AUC(0-t) [2, 10] was 11800 ng·h/mL. The Cmax [2, 10] was 13200 ng/mL, the Tmax [2, 10] was 0.083 h and the Vd ([2]; male, rat, plasma, 20 mg/kg tail intravenous injection, preformulation, read-out: Vz) was 9.55 L/kg.
